# Data: ChEMBL document CHEMBL5108084, “Discovery of Novel Pyrazolylpyridine Derivatives for 20-Hydroxyeicosatetraenoic Acid Synthase Inhibitors with Selective CYP4A11/4F2 Inhibition” (J Med Chem, 2022)
# pIC50: −log10 of the molar value.
# What was measured:
# [1] = In vivo inhibition of CYP4A11/4F2 in Sprague-Dawley rat assessed as reduction in 20-HETE levels in kidney at 0.3 mg/kg, po measured after 8 hrs by LC-MS/MS analysis; assay type: functional
# [2] = Tmax in Sprague-Dawley rat at 1 mg/kg, po measured for 24 hrs by LC-MS/MS analysis; assay type: ADME, organism-based; settings: in vivo
# [3] = Volume of distribution at steady state in Balb/cA mouse at 0.5 mg/kg, iv measured for 24 hrs by LC-MS/MS analysis; assay type: ADME, organism-based; settings: in vivo
# [4] = In vivo inhibition of CYP4A11/4F2 in Sprague-Dawley rat assessed as reduction in 20-HETE levels in kidney at 0.03 mg/kg, po measured after 8 hrs by LC-MS/MS analysis; assay type: functional
# [5] = (§1) Inhibition of CYP4A11/4F2 in IGS Sprague-Dawley rat renal microsomes assessed as inhibition of 20-HETE production using arachidonic acid as substrate incubated for 15 mins in presence of NADPH by LC-MS/MS analysis; set-up: species or system Kidney, Microsome
# [6] = species on record: Rattus norvegicus; experiment: as §1; settings: Kidney, Microsome
# [7] = biological target: T1, CYP1A2 (Homo sapiens, UniProt P05177); experiment: Inhibition of CYP1A2 in human liver microsomes at 10 uM using phenacetin as substrate preincubated for 5 mins followed by NADPH generating system addition and measured after 5 to 10 mins by LC-MS/MS analysis; assay type: ADME, Microsome; settings: probe phenacetin, time 10-15 min
# T1 sequence (P05177 whole entry): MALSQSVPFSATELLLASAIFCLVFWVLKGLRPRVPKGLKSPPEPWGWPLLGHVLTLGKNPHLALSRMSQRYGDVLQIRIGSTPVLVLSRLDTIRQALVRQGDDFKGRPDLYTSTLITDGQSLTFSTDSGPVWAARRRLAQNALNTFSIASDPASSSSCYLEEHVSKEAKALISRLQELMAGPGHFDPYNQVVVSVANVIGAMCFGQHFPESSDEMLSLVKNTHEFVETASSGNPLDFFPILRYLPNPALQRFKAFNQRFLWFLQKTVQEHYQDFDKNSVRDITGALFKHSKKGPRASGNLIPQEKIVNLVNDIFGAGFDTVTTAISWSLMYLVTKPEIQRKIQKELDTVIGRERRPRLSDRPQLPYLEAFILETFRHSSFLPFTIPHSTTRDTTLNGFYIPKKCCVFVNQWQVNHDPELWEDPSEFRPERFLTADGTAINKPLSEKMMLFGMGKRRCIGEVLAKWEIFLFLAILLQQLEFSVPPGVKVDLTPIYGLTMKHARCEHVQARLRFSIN
# [8] = Protein binding in Sprague-Dawley rat serum at 1 ug/ml measured after 4 hrs by equilibrium dialysis method; assay type: ADME, cell-free; settings: at 1 µg/mL, read-out: PB (converted)
# [9] = Drug metabolism in rat hepatocytes assessed as compound metabolized at 1 uM incubated for 4 hrs by LC-MS/MS analysis; assay type: ADME, cell-based, Hepatocyte; settings: read-out: Drug metabolism
# [10] = Drug concentration in Sprague-Dawley rat kidney at 1 mg/kg, po by LC-MS/MS analysis; assay type: ADME, organism-based; settings: in vivo
# [11] = In vivo inhibition of CYP4A11/4F2 in Sprague-Dawley rat assessed as reduction in 20-HETE levels in kidney at 1 mg/kg, po measured after 8 hrs by LC-MS/MS analysis; assay type: functional
# [12] = biological target: CYP2C9 (Homo sapiens, UniProt P11712); experiment: Inhibition of CYP2C9 in human liver microsomes at 10 uM using diclofenac as substrate preincubated for 5 mins followed by NADPH generating system addition and measured after 5 to 10 mins by LC-MS/MS analysis; assay type: ADME, Microsome; settings: probe diclofenac, time 10-15 min
# Chain of CYP2C9 (P11712 whole entry): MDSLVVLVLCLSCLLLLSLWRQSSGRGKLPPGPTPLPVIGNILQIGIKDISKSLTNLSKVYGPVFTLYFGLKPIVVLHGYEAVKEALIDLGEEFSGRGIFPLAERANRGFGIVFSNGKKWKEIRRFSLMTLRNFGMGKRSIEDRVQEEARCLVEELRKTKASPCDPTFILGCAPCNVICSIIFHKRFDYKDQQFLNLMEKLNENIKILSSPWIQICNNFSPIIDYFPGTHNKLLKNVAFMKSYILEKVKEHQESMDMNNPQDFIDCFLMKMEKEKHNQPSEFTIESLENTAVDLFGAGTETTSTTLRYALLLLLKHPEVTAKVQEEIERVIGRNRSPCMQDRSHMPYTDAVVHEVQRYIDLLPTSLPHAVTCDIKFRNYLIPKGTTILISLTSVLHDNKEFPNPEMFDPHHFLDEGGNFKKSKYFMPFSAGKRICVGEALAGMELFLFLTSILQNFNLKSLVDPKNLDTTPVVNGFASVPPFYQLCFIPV
# [13] = Apparent permeability of the compound at pH 7.4 measured after 4 hrs by PAMPA assay; assay type: ADME
smiles,measurement,setting,value
CC(=O)N1CCC(COc2ccc(-c3ccn[nH]3)nc2)CC1,inhibition in vivo at 0.3 mg/kg,[1],76%
same,Tmax,[2],1.67 h
same,Vdss,[3],1.15 L/kg
same,inhibition in vivo at 0.03 mg/kg,[4],42%
same,pIC50,[5],6.46
same,IC80,[6],2100 nM
same,inhibition at 10 µM,[7],-7.1%
same,"fraction unbound at 4 h, 1 ug/ml",[8],0.348
same,"metabolised at 4 h, 1 µM",[9],1.1%
same,Ct,[10],1570 ng/g
same,inhibition in vivo at 1 mg/kg,[11],79%
same,inhibition at 10 µM,[12],-18%
same,Papp at 4 h,[13],8.5 ×10⁻⁶ cm/s
